# Experimental data: patent US20120172384A1, “HETEROCYCLYLAMINOPYRIMIDINES AS KINASE INHIBITORS” (priority 2009, published 2012)
# Values joined by “and” are separate entries in the source; they are usually repeats but may differ in a detail not shown here. Identical values can stand only once.
# How the values were obtained:
# JAK3 = target: T1, JAK3 (Homo sapiens, UniProt P52333); experiment: JAK3 kinobeads assay; type: binding; settings: cell lysate, dot blot with JAK3 specific antibody
# T1 construct: endogenous in cells
# T1 sequence (P52333 1-1124): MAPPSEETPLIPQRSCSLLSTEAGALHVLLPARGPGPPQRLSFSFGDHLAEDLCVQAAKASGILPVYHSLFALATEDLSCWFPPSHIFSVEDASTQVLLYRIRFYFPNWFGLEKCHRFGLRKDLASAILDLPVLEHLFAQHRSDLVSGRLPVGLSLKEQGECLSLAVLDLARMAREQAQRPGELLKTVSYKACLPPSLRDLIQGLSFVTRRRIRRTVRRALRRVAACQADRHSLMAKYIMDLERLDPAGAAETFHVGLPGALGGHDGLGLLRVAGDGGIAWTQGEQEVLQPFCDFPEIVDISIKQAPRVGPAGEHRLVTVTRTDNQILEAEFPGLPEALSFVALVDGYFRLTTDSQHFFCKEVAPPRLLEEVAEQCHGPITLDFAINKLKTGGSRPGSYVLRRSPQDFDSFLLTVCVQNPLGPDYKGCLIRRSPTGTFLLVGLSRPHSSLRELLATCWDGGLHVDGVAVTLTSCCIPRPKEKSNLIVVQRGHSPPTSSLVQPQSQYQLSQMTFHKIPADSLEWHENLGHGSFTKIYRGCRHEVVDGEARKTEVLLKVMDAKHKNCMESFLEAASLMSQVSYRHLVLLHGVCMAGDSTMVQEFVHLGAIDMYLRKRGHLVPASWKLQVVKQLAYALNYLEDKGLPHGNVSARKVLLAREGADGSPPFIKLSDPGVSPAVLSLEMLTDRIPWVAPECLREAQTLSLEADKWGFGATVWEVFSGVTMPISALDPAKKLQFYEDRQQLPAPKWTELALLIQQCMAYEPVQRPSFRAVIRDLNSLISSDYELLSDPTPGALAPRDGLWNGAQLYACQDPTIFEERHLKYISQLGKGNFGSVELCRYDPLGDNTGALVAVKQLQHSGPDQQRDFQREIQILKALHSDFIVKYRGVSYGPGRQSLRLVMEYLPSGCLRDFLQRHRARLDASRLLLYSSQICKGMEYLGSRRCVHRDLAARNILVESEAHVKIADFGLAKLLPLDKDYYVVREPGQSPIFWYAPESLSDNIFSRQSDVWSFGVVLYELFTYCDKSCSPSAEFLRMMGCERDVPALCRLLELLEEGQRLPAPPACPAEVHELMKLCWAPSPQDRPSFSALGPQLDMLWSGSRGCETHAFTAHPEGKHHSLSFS
# Protocol: (§1) The compounds of the present invention as described in the previous examples were tested in the ZAP-70 kinobeads assay as described (EP-A 1862802 and WO-A 2007/137867). Briefly, test compounds (at various concentrations) and the affinity matrix with the immobilized aminopyrido-pyrimidine ligand 24 are added to cell lysate aliquots and allowed to bind to the proteins in the lysate sample. After the incubation time the beads with captured proteins are separated from the lysate. Bound proteins are then eluted and the presence ZAP-70 is detected and quantified using a specific antibody in a dot blot procedure and the Odyssey infrared detection system.
# Compounds were tested by the procedure described in Example 102 but using a JAK3 specific antibody (Cell Signaling Technology, Inc., Danvers, US, catalogue number 3775) instead of a ZAP70 antibody.
# ZAP-70 = target: T2, ZAP-70 (Homo sapiens, UniProt P43403); experiment: ZAP-70 kinobeads assay; type: binding; settings: cell lysate, dot blot with ZAP-70 antibody
# T2 construct: endogenous in cells
# T2 sequence (P43403 1-619): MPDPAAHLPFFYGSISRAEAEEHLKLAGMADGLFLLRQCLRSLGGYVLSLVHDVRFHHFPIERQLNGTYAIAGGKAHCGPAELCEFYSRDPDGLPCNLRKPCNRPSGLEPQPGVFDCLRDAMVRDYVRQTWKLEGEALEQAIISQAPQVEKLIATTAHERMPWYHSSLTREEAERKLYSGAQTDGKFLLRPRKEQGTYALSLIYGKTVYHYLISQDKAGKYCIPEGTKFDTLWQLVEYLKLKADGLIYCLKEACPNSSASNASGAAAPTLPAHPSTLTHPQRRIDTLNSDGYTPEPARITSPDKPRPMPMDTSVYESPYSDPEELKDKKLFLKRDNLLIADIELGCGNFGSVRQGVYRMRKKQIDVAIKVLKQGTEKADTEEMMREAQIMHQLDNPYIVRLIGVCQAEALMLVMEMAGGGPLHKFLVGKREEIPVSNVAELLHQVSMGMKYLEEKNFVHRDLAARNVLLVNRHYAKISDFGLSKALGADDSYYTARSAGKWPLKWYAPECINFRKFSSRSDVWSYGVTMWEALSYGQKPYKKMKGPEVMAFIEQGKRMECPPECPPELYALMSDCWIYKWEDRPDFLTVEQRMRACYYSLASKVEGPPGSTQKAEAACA
# Protocol: as §1
SMILES,IC50 (JAK3),IC50 (ZAP-70)
"Cn1ccc(Nc2ncc(F)c(Nc3ccccc3NS(C)(=O)=O)n2)n1 [Example 1, N-(2-(5-fluoro-2-(1-methyl-1H-pyrazol-3-ylamino)pyrimidin-4-ylamino)phenyl)methanesulfonamide]",0.1 to 1 µM,1 to 10 µM
"COc1ccc(Nc2nc(Nc3ccn(C)n3)ncc2F)c(NS(C)(=O)=O)c1 [Example 7, N-(2-(5-fluoro-2-(1-methyl-1H-pyrazol-3-ylamino)pyrimidin-4-ylamino)-5-methoxyphenyl)methanesulfonamide]",0.1 to 1 µM,0.1 to 1 µM
"COc1ccc(Nc2nc(Nc3cc(C(C)C)nn3C)ncc2Cl)c(NS(C)(=O)=O)c1 [Example 11, N-(2-(5-chloro-2-(3-isopropyl-1-methyl-1H-pyrazol-5-ylamino)pyrimidin-4-ylamino)-5-methoxyphenyl)methanesulfonamide]",0.1 to 1 µM,0.1 to 1 µM
"CCn1nc(C)cc1Nc1ncc(Cl)c(Nc2ccc(OC)cc2NS(C)(=O)=O)n1 [Example 12, N-(2-(5-chloro-2-(1-ethyl-3-methyl-1H-pyrazol-5-ylamino)pyrimidin-4-ylamino)-5-methoxyphenyl)methanesulfonamide]",0.1 to 1 µM,≤ 0.1 µM
"COc1ccc(Nc2nc(Nc3c(C)nn(C)c3C)ncc2Cl)c(NS(C)(=O)=O)c1 [Example 13, N-(2-(5-chloro-2-(1,3,5-trimethyl-1H-pyrazol-4-ylamino)pyrimidin-4-ylamino)-5-methoxyphenyl)methanesulfonamide]",1 to 10 µM,0.1 to 1 µM
"Cn1ccc(Nc2ncc(Cl)c(Nc3ccccc3NS(C)(=O)=O)n2)n1 [Example 16, N-(2-(5-chloro-2-(1-methyl-1H-pyrazol-3-ylamino)pyrimidin-4-ylamino)phenyl)methanesulfonamide]",≤ 0.1 µM,0.1 to 1 µM
"Cn1cc(Nc2ncc(Cl)c(Nc3ccccc3NS(C)(=O)=O)n2)cn1 [Example 20, N-(2-(5-chloro-2-(1-methyl-1H-pyrazol-4-ylamino)pyrimidin-4-ylamino)phenyl)methanesulfonamide]",≤ 0.1 µM,0.1 to 1 µM
"CCCn1nc(C)cc1Nc1ncc(Cl)c(Nc2ccc(OC)cc2NS(C)(=O)=O)n1 [Example 69, N-(2-((5-chloro-2-((3-methyl-1-propyl-1H-pyrazol-5-yl)amino)pyrimidin-4-yl)amino)-5-methoxyphenyl)methanesulfonamide]",–,≤ 0.1 µM
"COc1ccc(Nc2nc(Nc3cc(C)nn3C(C)C)ncc2Cl)c(NS(C)(=O)=O)c1 [Example 71, N-(2-((5-chloro-2-((1-isopropyl-3-methyl-1H-pyrazol-5-yl)amino)pyrimidin-4-yl)amino)-5-methoxyphenyl)methanesulfonamide]",–,0.1 to 1 µM
"CCCCn1nc(C)cc1Nc1ncc(Cl)c(Nc2ccc(OC)cc2NS(C)(=O)=O)n1 [Example 86, N-(2-((2-((1-butyl-3-methyl-1H-pyrazol-5-yl)amino)-5-chloropyrimidin-4-yl)amino)-5-methoxyphenyl)methanesulfonamide]",–,≤ 0.1 µM
"COc1ccc(Nc2nc(Nc3cc(C)nn3C(C)C3CC3)ncc2Cl)c(NS(C)(=O)=O)c1 (centres unmarked) [Example 88, N-(2-((5-chloro-2-((1-(1-cyclopropylethyl)-3-methyl-1H-pyrazol-5-yl)amino)pyrimidin-4-yl)amino)-5-methoxyphenyl)methanesulfonamide]",–,1 to 10 µM
"COc1ccc(Nc2nc(Nc3cc(C)nn3CC(C)C)ncc2Cl)c(NS(C)(=O)=O)c1 [Example 95, N-(2-((5-chloro-2-((1-isobutyl-3-methyl-1H-pyrazol-5-yl)amino)pyrimidin-4-yl)amino)-5-methoxyphenyl)methanesulfonamide]",–,0.1 to 1 µM

# Further lines, results first:
IC50 (JAK3),IC50 (ZAP-70),SMILES
≤ 0.1 µM,≤ 0.1 µM,"COc1ccc(Nc2nc(Nc3c[nH]nc3C)ncc2Cl)c(NS(C)(=O)=O)c1 [Example 2, N-(2-(5-chloro-2-(3-methyl-1H-pyrazol-4-ylamino)pyrimidin-4-ylamino)-5-methoxyphenyl)methanesulfonamide]"
≤ 0.1 µM,0.1 to 1 µM,"COc1ccc(Nc2nc(Nc3ccon3)ncc2Cl)c(NS(C)(=O)=O)c1 [Example 3, N-(2-(5-chloro-2-(isoxazol-3-ylamino)pyrimidin-4-ylamino)-5-methoxyphenyl)methanesulfonamide]"
0.1 to 1 µM and ≤ 0.1 µM,0.1 to 1 µM,"COc1ccc(Nc2nc(Nc3ccn(C)n3)ncc2Cl)c(NS(C)(=O)=O)c1 [Example 4, N-(2-(5-chloro-2-(1-methyl-1H-pyrazol-3-ylamino)pyrimidin-4-ylamino)-5-methoxyphenyl)methanesulfonamide]"
0.1 to 1 µM,≤ 0.1 µM,"COc1ccc(Nc2nc(Nc3ccnn3C)ncc2Cl)c(NS(C)(=O)=O)c1 [Example 5, N-(2-(5-chloro-2-(1-methyl-1H-pyrazol-5-ylamino)pyrimidin-4-ylamino)-5-methoxyphenyl)methanesulfonamide]"
≤ 0.1 µM,≤ 0.1 µM,"COc1ccc(Nc2nc(Nc3cnn(C)c3)ncc2Cl)c(NS(C)(=O)=O)c1 [Example 6, N-(2-(5-chloro-2-(1-methyl-1H-pyrazol-4-ylamino)pyrimidin-4-ylamino)-5-methoxyphenyl)methanesulfonamide]"
≤ 0.1 µM,≤ 0.1 µM,"COc1ccc(Nc2nc(Nc3cc(C)nn3C)ncc2Cl)c(NS(C)(=O)=O)c1 [Example 8, N-(2-(5-chloro-2-(1,3-dimethyl-1H-pyrazol-5-ylamino)pyrimidin-4-ylamino)-5-methoxyphenyl)methanesulfonamide]"
1 to 10 µM,1 to 10 µM,"COc1ccc(Nc2nc(Nc3nonc3OC)ncc2Cl)c(NS(C)(=O)=O)c1 [Example 17, N-(2-(5-chloro-2-(4-methoxy-1,2,5-oxadiazol-3-ylamino)pyrimidin-4-ylamino)-5-methoxyphenyl)methanesulfonamide]"
≤ 0.1 µM,≤ 0.1 µM,"COc1ccc(Nc2nc(Nc3cn(C)nc3C)ncc2Cl)c(NS(C)(=O)=O)c1 [Example 18, N-(2-(5-chloro-2-(1,3-dimethyl-1H-pyrazol-4-ylamino)pyrimidin-4-ylamino)-5-methoxyphenyl)methanesulfonamide]"
–,0.1 to 1 µM,"CCCn1nccc1Nc1ncc(Cl)c(Nc2ccc(OC)cc2NS(C)(=O)=O)n1 [Example 76, N-(2-((5-chloro-2-((1-propyl-1H-pyrazol-5-yl)amino)pyrimidin-4-yl)amino)-5-methoxyphenyl)methanesulfonamide]"
–,0.1 to 1 µM,"CCCCn1nccc1Nc1ncc(Cl)c(Nc2ccc(OC)cc2NS(C)(=O)=O)n1 [Example 87, N-(2-((2-((1-butyl-1H-pyrazol-5-yl)amino)-5-chloropyrimidin-4-yl)amino)-5-methoxyphenyl)methanesulfonamide]"
–,1 to 10 µM,"COc1ccc(Nc2nc(Nc3ccnn3CC(C)C)ncc2Cl)c(NS(C)(=O)=O)c1 [Example 98, N-(2-((5-chloro-2-((1-isobutyl-1H-pyrazol-5-yl)amino)pyrimidin-4-yl)amino)-5-methoxyphenyl)methanesulfonamide]"
